These results are taken from ChEMBL document CHEMBL3397008, “Design, synthesis and evaluation of XZH-5 analogues as STAT3 inhibitors” (Bioorg Med Chem, 2015).

Holding throughout (assay type): functional, cell-based
The nature of experiment [1]: Cytotoxicity against human PANC1 cells after 72 hrs by MTT assay. The conditions noted are these: PANC-1, 72 h. In general terms: Tetrazolium assays rely on reduction of a dye to a coloured formazan, in cell work by metabolically active cells.
The test system of the next experiment is HPAC. Put plainly: Cytotoxicity against human HPAC cells after 72 hrs by MTT assay.
Another experiment concerns MDA-MB-231. Kind of experiment: Cytotoxicity against human MDA-MB-231 cells after 72 hrs by MTT assay. The conditions noted are these: MDA-MB-231, 72 h.
For another experiment, the system named is SW1990. Kind of experiment: Cytotoxicity against human SW1990 cells after 72 hrs by MTT assay. The note with it: SW1990, 72 h.

What is called IC50 is the midpoint of a concentration-inhibition curve. Read a low IC50 as higher potency. On to `COC(=O)[C@H](Cc1cn(C)cn1)NC(=O)[C@@H](NC(=O)Nc1cc(C(F)(F)F)cc(C(F)(F)F)c1)C(C)C`, for which the IC50 in experiment [1] is 24.7 µM; in the experiment on HPAC, 17.4 µM; in the experiment on MDA-MB-231 it was 15.5 µM; with SW1990 it was 17.9 µM.

As for `COC(=O)[C@H](Cc1cn(C)cn1)NC(=O)[C@H](C)NC(=O)Nc1cc(C(F)(F)F)cc(C(F)(F)F)c1`, the IC50 in experiment [1] came to 50 µM.

On to `COC(=O)[C@H](Cc1cn(C)cn1)NC(=O)[C@H](CC(C)C)NC(=O)Nc1cc(C(F)(F)F)cc(C(F)(F)F)c1`, for which the half-inhibitory concentration (IC50) in experiment [1] turned out to be 16.8 µM; in the experiment on HPAC, 13.2 µM; with MDA-MB-231, 10.6 µM; with SW1990 it was 9.1 µM.

For the molecule `CC[C@H](C)[C@H](NC(=O)Nc1cc(C(F)(F)F)cc(C(F)(F)F)c1)C(=O)N[C@@H](Cc1cn(C)cn1)C(=O)OC`, the IC50 worked out at 10.1 µM in experiment [1], 7.6 µM with HPAC, 6.5 µM in the experiment on MDA-MB-231 and 8.3 µM in the experiment with SW1990.

Take `CC(C)[C@H](NC(=O)Nc1cc(C(F)(F)F)cc(C(F)(F)F)c1)C(=O)N[C@@H](Cc1cn(C)cn1)C(=O)O`: the IC50 in experiment [1] is over 100 µM.

Regarding `C[C@H](NC(=O)Nc1cc(C(F)(F)F)cc(C(F)(F)F)c1)C(=O)N[C@@H](Cc1cn(C)cn1)C(=O)O`, in experiment [1], the IC50 is over 100 µM.

Turning to `COC(=O)[C@H](Cc1cn(C)cn1)NC(=O)[C@H](Cc1ccccc1)NC(=O)Nc1cc(C(F)(F)F)cc(C(F)(F)F)c1`, the IC50 is 16.1 µM in experiment [1], 9.6 µM with HPAC, 6.8 µM with MDA-MB-231 and 10.8 µM in the experiment with SW1990.

`COC(=O)[C@H](Cc1cn(C)cn1)NC(=O)[C@H](Cc1c[nH]c2ccccc12)NC(=O)Nc1cc(C(F)(F)F)cc(C(F)(F)F)c1` had an IC50 in experiment [1] of 31.4 µM. In other words, the double-digit micromolar range.

On to `COC(=O)[C@H](Cc1cn(C)cn1)NC(=O)[C@H](CC(=O)OCc1ccccc1)NC(=O)Nc1cc(C(F)(F)F)cc(C(F)(F)F)c1`, for which half-maximal inhibition in experiment [1] (IC50) was put at 68.6 µM.

Take `COC(=O)[C@H](Cc1cn(C)cn1)NC(=O)[C@H](CCC(=O)OCc1ccccc1)NC(=O)Nc1cc(C(F)(F)F)cc(C(F)(F)F)c1`: inhibition in experiment [1] was half-maximal at 85.5 µM (IC50). The IC50 values of the last two molecules are within 1.5-fold of each other.

In the case of `CCn1cnc(C[C@H](NC(=O)[C@@H](NC(=O)Nc2cc(C(F)(F)F)cc(C(F)(F)F)c2)C(C)C)C(=O)OC)c1`, the half-inhibitory concentration (IC50) was found to be 11.1 µM in experiment [1], 9.5 µM in the experiment with HPAC, 7.6 µM with MDA-MB-231 and 9.4 µM in the experiment with SW1990.

In the case of `COC(=O)[C@H](Cc1cn(C)cn1)NC(=O)[C@@H](NC(=O)Nc1cc(C(F)(F)F)cc(C(F)(F)F)c1)C(C)(C)C`, the IC50 was 8.8 µM in experiment [1], 9.8 µM with HPAC, 9.4 µM in the experiment with MDA-MB-231 and 8.5 µM in the experiment with SW1990.

For `COC(=O)[C@H](Cc1c[nH]cn1)NC(=O)[C@@H](NC(=O)Nc1cc(C(F)(F)F)cc(C(F)(F)F)c1)C(C)C`, in experiment [1], half-maximal inhibition (IC50) was put at 98.4 µM.

Consider `COC(=O)[C@H](Cc1cn(C)cn1)NC(=O)[C@@H](NC(=O)Nc1cccc(C(F)(F)F)c1)C(C)C`, for which inhibition in experiment [1] was half-maximal at 61.9 µM (IC50).
